Experimental data as given in patent publication US9657015B2, “Substituted bicyclic dihydropyrimidinones and their use as inhibitors of neutrophil elastase activity” (Boehringer Ingelheim International GmbH, priority 2014, dated 2017).
pIC50: −log10 of the molar value. In brackets after ≈: the same amount, converted by molar mass.

Experiments:
[1] = target: Human neutrophil elastase (Homo sapiens (Human), UniProt P08246); experiment: Human Neutrophil Elastase Assay; format: biochemical; conditions: substrate MeOSuc-Ala-Ala-Pro-Val-AMC 250 μM, pH 7.5, room temperature
Human neutrophil elastase, sequence (P08246 30-247): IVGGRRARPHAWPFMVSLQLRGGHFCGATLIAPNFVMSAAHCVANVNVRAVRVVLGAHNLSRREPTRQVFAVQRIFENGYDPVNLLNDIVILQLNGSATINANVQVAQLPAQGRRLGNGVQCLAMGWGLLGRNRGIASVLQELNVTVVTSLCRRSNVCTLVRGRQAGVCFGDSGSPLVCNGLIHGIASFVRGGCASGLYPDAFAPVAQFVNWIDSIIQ
Protocol: The following buffers were used: Compound buffer: 100 mM Tris, 500 mM NaCl, adjusted to pH 7.5; Assay buffer: 100 mM Tris, 500 mM NaCl, adjusted to pH 7.5, containing 0.01% BSA.
Assay conditions: Test compounds were prediluted in DMSO and subsequently in compound buffer (5% DMSO final). […] After inactivation of the enzyme, fluorescence intensities were measured at 380 nm excitation and 460 nm emission wavelengths.
Each plate contains wells with a high value control (DMSO+enzyme+substrate) and wells with a low value control (DMSO+inactivated enzyme+substrate). IC50 values were estimated using a sigmoidal concentration response curve with variable slope. Means of low values were taken as 0%, means of high values as 100%.

[2] = target: neutrophil elastase in human plasma (Homo sapiens (Human), UniProt P08246); experiment: Neutrophil elastase inhibitory activity in human plasma; format: biochemical; conditions: human plasma assay (zymosan-stimulated blood plasma), substrate 250 μM, pH 7.5
neutrophil elastase in human plasma, sequence (P08246 30-247): as above

[3] = Metabolic stability with human liver microsomes; format: in vitro ADME; conditions: pH 7.6; pooled human liver microsomes, 37° C., 1 μM test compound, 1 mg/ml microsomal protein, NADPH; read-out: t1/2 INVITRO
[4] = Drug transport across human Caco-2 cells; format: in vitro ADME; conditions: human, Caco-2 monolayers, pH 7.2, 37° C.; for Papp A→B at 10 µM: apical-to-basal, read-out: PEAB; for Papp B→A at 10 µM: basal-to-apical, read-out: PEBA
Description: Assay for Determination of Drug Transport Across Human Caco-2 Cells
The assay provides information on the potential of a compound to pass the cell membrane, on the extent of oral absorption as well as on whether the compound is actively transported by uptake and/or efflux transporters. For the measurement of permeability across polarized, confluent human cancer colon carcinoma cells 2 (Caco-2) cell monolayers grown on permeable filter supports are used as the in vitro absorption model.
Apparent permeability coefficients (PE) of the compounds across the Caco-2 monolayers are measured (pH 7.2, 37° C.) in apical-to-basal (AB) (absorptive) and basal-to-apical (BA) (secretory) transport direction. AB permeability (PEAB) represents drug absorption from the intestine into the blood and BA permeability (PEBA) drug secretion from the blood back into the intestine via both passive permeability as well as active transport mechanisms mediated by efflux and uptake transporters that are expressed on the Caco-2 cells. The compounds are assigned to permeability/absorption classes by comparison of the AB permeabilities with the AB permeabilities of reference compounds with known in vitro permeability and oral absorption in the human. Identical or similar permeabilities in both transport directions indicate passive permeation, vectorial permeability points to additional active transport mechanisms. […] Active transport is concentration-dependently saturable.
Caco-2 cells (1-2*10^5 cells/cm^2 area) are seeded on filter inserts (Costar transwell polycarbonate or PET filters, 0.4 μm pore size) and cultured (DMEM) for 10 to 25 days. Compounds are dissolved in appropriate solvent (like DMSO, 1-20 mM stock solutions). Stock solutions are diluted with HTP-4 buffer (128.13 mM NaCl, 5.36 mM KCl, 1 mM MgSO4, 1.8 mM CaCl2, 4.17 mM NaHCO3, 1.19 mM Na2HPO4×7H2O, 0.41 mM NaH2PO4×H2O, 15 mM HEPES, 20 mM glucose, pH 7.2) to prepare the transport solutions (typically 10 μM compound, final DMSO<=0.5%). The transport solution (TL) is applied to the apical or basolateral donor side for measuring A-B or B-A permeability (3 filter replicates), respectively. The receiver side contains HTP-4 buffer supplemented with 2% BSA. Samples are collected at the start and end of experiment from the donor and at various time intervals for up to 2 hours also from the receiver side for concentration measurement by LC-MS/MS or scintillation counting. Sampled receiver volumes are replaced with fresh receiver solution.
The apparent permeability coefficients (PEAB and PEBA) of selected compounds in the Caco-2 drug transport assay described above are listed in Table 9.

[5] = Aqueous solubility (High Throughput Method); format: physicochemical; conditions: McIlvaine buffer pH 6.8 with 2.5% DMSO, aqueous buffer, kinetic from dmso stock; McIlvaine buffer pH 6.8, 2.5% DMSO, 24 h shaking
Protocol: Assay for Determination of Aqueous Solubility (“High Throughput Method”)
Starting from a 10 mM DMSO stock solution, aliquots are diluted with acetonitrile/water (1/1) and McIlvaine buffer pH 6.8, respectively. After 24 h of shaking, the solutions or suspensions are filtered and analyzed by LC-UV. The amount dissolved in buffer is compared to the amount dissolved in the acetonitrile/water (1/1) solution. Solubility is measured from 0.001 to 0.125 mg/ml at a DMSO concentration of 2.5%. If more than 90% of the compound is dissolved in buffer, the value is marked with “>”.

[6] = Aqueous solubility (Shaked Flask Method); format: physicochemical; conditions: aqueous buffer, thermodynamic from solid, pH 6.8 (McIlvaine buffer)
Protocol: Assay for Determination of Aqueous Solubility (“Shaked Flask Method”)
Saturated solutions are prepared in well plates by adding an appropriate volume of selected aqueous media (typically in the range of 0.25-1.5 ml) into each well which contains a known quantity of solid drug substance (typically in the range 0.5-5.0 mg). The wells are shaken or stirred for a predefined time period (typically in a range of 2-24 h) and then filtered using appropriate filter membranes (typically PTFE-filters with 0.45 μm pore size). Filter absorption is avoided by discarding the first few drops of filtrate. The amount of dissolved drug substance is determined by UV spectroscopy or by HPLC with UV-detection. In addition, the pH of the aqueous saturated solution is measured using a glass-electrode pH meter.

[7] = Metabolic stability with human hepatocytes; format: in vitro ADME; conditions: human hepatocyte suspension (typically cryopreserved), 1 μM test compound, six hours, scaled with well stirred model
Protocol: Assay for the Determination of Metabolic Stability with Human Hepatocytes
The metabolic degradation of the test compound is assayed in a human hepatocyte suspension. Human hepatocytes (typically cryopreserved) are incubated in an appropriate buffer system (e.g. Dulbecco's modified eagle medium plus 3.5 μg glucagon/500 mL, 2.5 mg insulin/500 mL and 3.75 mg/500 mL hydrocortison) containing 5% species serum. Following a (typically) 30 min preincubation in an incubator (37° C., 10% CO2), 5 μl of test compound solution (80 μM; from 2 mM stock solution in DMSO diluted 1:25 with medium) are added into 395 μl hepatocyte suspension (cell density in the range 0.25-5*10^6 cells/mL, typically 1*10^6 cells/mL; final concentration of test compound 1 μM, final DMSO concentration 0.05%). The cells are incubated for six hours (incubator, orbital shaker) and samples (25 μl) are taken at 0, 0.5, 1, 2, 4 and 6 hours. Samples are transferred into acetonitrile and pelleted by centrifugation (5 min) The supernatant is transferred to a new 96-deepwell plate, evaporated under nitrogen and resuspended. The decline of parent compound is analyzed by LC-MS/MS.
The intrinsic clearance CL_[…] is calculated as follows: CL_[…]=Dose/AUC=(C0/CD)/(AUD+clast/k)*1′000/60 (C0: initial concentration in the incubation [μM], CD: cell density of vital cells [10^6 cells/mL], AUD: area under the data [μM*h], clast: concentration of last data point [μM], k: slope of the regression line for parent decline [h^−1])
The calculated in vitro hepatic intrinsic clearance can be scaled up to the intrinsic in vivo hepatic clearance and used to predict hepatic in vivo blood clearance (CL) by the use of a liver model (well stirred model): CL_[…]_INVIVO [ml/min/kg]=(CL_[…] [μL/min/10^6 cells]*hepatocellularity [10^6 cells/g liver]*liver factor [g/kg bodyweight])/1′000 CL [ml/min/kg]=CL_[…]_INVIVO [ml/min/kg]*hepatic blood flow [ml/min/kg]/(CL_[…]_INVIVO [ml/min/kg]+hepatic blood flow [ml/min/kg]) Qh [%]=CL [ml/min/kg]/hepatic blood flow [ml/min/kg]) (Hepatocellularity, human: 120*10^6 cells/g liver; liver factor, human: 25.7 g/kg bodyweight; blood flow, human: 21 ml/(min*kg))

Structure (SMILES)	pIC50 [1]	pIC50 [2]	half-life at 1 μM [3]	Papp A→B at 10 µM [4]	Papp B→A at 10 µM [4]	solubility at 24 h [5]	solubility [6]	CLhep predicted at 1 μM [7]
CN1CCC2=C(C1=O)C(c1ccc(C#N)cc1-c1cnco1)N(C)C(=O)N2c1cccc(C(F)(F)F)c1 (stereo not drawn) [Example 37, 4-{3,6-Dimethyl-2,5-dioxo-1-[3-(trifluoromethyl)phenyl]-1H,2H,3H,4H,5H,6H,7H,8H-pyrido[4,3-d]pyrimidin-4-yl}-3-(1,3-oxazol-5-yl)benzonitrile]	> 9.00	8.96	> 2.17 h	32 ×10⁻⁶ cm/s	90 ×10⁻⁶ cm/s	60 µg/mL (≈ 118 µM)	≥ 10 µg/mL	–
CN1CCC2=C(C1=O)C(c1ccc(C#N)cc1C(N)=O)N(C)C(=O)N2c1cccc(C(F)(F)F)c1 (stereo not drawn) [Example 39, 5-Cyano-2-{3,6-dimethyl-2,5-dioxo-1-[3-(trifluoromethyl)phenyl]-1H,2H,3H,4H,5H,6H,7H,8H-pyrido[4,3-d]pyrimidin-4-yl}benzamide]	> 9.00	> 9.00	> 2.17 h	4.2 ×10⁻⁶ cm/s	59 ×10⁻⁶ cm/s	78 µg/mL (≈ 161 µM)	–	–
COC(=O)CN1C(=O)N(c2cccc(C(F)(F)F)c2)C2=C(C(=O)NCC2)C1c1ccc(C#N)cc1 (stereo not drawn) [Example 9, Methyl 2-(4-(4-Cyanophenyl)-2,5-dioxo-1-(3-(trifluoromethyl)phenyl)-1,2,5,6,7,8-hexahydropyrido[4,3-d]pyrimidin-3(4H)-yl)acetate]	8.64	8.51	> 2.17 h	6.1 ×10⁻⁶ cm/s	63 ×10⁻⁶ cm/s	88 µg/mL (≈ 182 µM)	–	–
CN1C(=O)N(c2cccc(C(F)(F)F)c2)C2=C(C(=O)NCC2)C1c1ccc(C#N)cc1S(C)(=O)=O (stereo not drawn) [Example 40, 3-Methanesulfonyl-4-{3-methyl-2,5-dioxo-1-[3-(trifluoromethyl)phenyl]-1H,2H,3H,4H,5H,6H,7H,8H-pyrido[4,3-d]pyrimidin-4-yl}benzonitrile]	> 9.00	> 9.00	> 2.17 h	17 ×10⁻⁶ cm/s	87 ×10⁻⁶ cm/s	–	–	1 mL/min/kg
CN1CCC2=C(C1=O)[C@@H](c1ccc(C#N)cc1)NC(=O)N2c1cccc(C(F)(F)F)c1 [Example 4A, (R)-4-(6-Methyl-2,5-dioxo-1-(3-(trifluoromethyl)phenyl)-1,2,3,4,5,6,7,8-octahydropyrido[4,3-d]pyrimidin-4-yl)benzonitrile]	8.89	8.57	> 2.17 h	17 ×10⁻⁶ cm/s	34 ×10⁻⁶ cm/s	> 89 µg/mL	–	–
CN1C(=O)N(c2cccc(C(F)(F)F)c2)C2=C(C(=O)NCC2)C1c1ccc(C#N)cc1-c1ccncn1 (stereo not drawn) [Example 35, 4-{3-Methyl-2,5-dioxo-1-[3-(trifluoromethyl)phenyl]-1H,2H,3H,4H,5H,6H,7H,8H-pyrido[4,3-d]pyrimidin-4-yl}-3-(pyrimidin-4-yl)benzonitrile]	> 9.00	> 9.00	> 2.17 h	5.7 ×10⁻⁶ cm/s	100 ×10⁻⁶ cm/s	84 µg/mL (≈ 167 µM)	–	1 mL/min/kg
CN1C(=O)N(c2cccc(C(F)(F)F)c2)C2=C(C(=O)NCC2)[C@H]1c1ccc(C#N)cc1 [Example 6, (R)-4-(3-Methyl-2,5-dioxo-1-(3-(trifluoromethyl)phenyl)-1,2,3,4,5,6,7,8-octahydropyrido[4,3-d]pyrimidin-4-yl)benzonitrile]	> 9.00	9.00	> 2.17 h	37 ×10⁻⁶ cm/s	80 ×10⁻⁶ cm/s	> 88 µg/mL	–	–
N#Cc1ccc([C@H]2NC(=O)N(c3cccc(C(F)F)c3)C3=C2C(=O)NCC3)cc1 [Example 2A, (R)-4-(1-(3-(Difluoromethyl)phenyl)-2,5-dioxo-1,2,3,4,5,6,7,8-octahydropyrido[4,3-d]-pyrimidin-4-yl)benzonitrile]	8.49	8.27	> 2.17 h	4.7 ×10⁻⁶ cm/s	31 ×10⁻⁶ cm/s	> 92 µg/mL	–	–
CN1C(=O)N(c2cccc(C(F)F)c2)C2=C(C(=O)NCC2)[C@H]1c1ccc(C#N)cc1 [Example 8A, (R)-4-(1-(3-(Difluoromethyl)phenyl)-3-methyl-2,5-dioxo-1,2,3,4,5,6,7,8-octahydropyrido[4,3-d]pyrimidin-4-yl)benzonitrile]	> 9.00	> 9.00	> 2.17 h	20 ×10⁻⁶ cm/s	97 ×10⁻⁶ cm/s	61 µg/mL (≈ 149 µM)	–	2 mL/min/kg
